Assay results published in PubChem BioAssay (NCI).
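Protocol summary: plate cells (96-well), add compound at 5 concentrations, incubate 48 h, interpolate endpoints linearly. Abbreviation: GI50, concentration required for 50% inhibition of growth. TGI is the concentration that stops growth completely.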

Key:
Experiment in all cases: DTP human tumour cell line panel, 48 h
U251 CNS = tested on: U251 CNS
M14 melanoma = tested on: M14 melanoma
T-47D breast = tested on: T-47D breast
SF-295 CNS = tested on: SF-295 CNS
IGROV1 ovarian = tested on: IGROV1 ovarian
TK-10 renal = tested on: TK-10 renal
HOP-92 NSCLC = tested on: HOP-92 NSCLC
NCI-H460 lung = tested on: NCI-H460 lung
SW-620 colon = tested on: SW-620 colon
HCT-15 colon = tested on: HCT-15 colon
MOLT-4 leukemia = tested on: MOLT-4 leukemia
SK-MEL-28 melanoma = tested on: SK-MEL-28 melanoma
A498 renal = tested on: A498 renal
MALME-3M melanoma = tested on: MALME-3M melanoma
LOX IMVI melanoma = tested on: LOX IMVI melanoma
HT29 colon = tested on: HT29 colon
OVCAR-4 ovarian = tested on: OVCAR-4 ovarian
MDA-MB-468 breast = tested on: MDA-MB-468 breast
CAKI-1 renal = tested on: CAKI-1 renal
PC-3 prostate = tested on: PC-3 prostate
ACHN renal = tested on: ACHN renal
UACC-257 melanoma = tested on: UACC-257 melanoma
HOP-62 NSCLC = tested on: HOP-62 NSCLC
UACC-62 melanoma = tested on: UACC-62 melanoma
COLO 205 colon = tested on: COLO 205 colon
NCI/ADR-RES ovarian = tested on: NCI/ADR-RES ovarian
NCI-H23 lung = tested on: NCI-H23 lung
SR leukemia = tested on: SR leukemia
HL-60(TB) leukemia = tested on: HL-60(TB) leukemia
SF-539 CNS = tested on: SF-539 CNS
RPMI-8226 leukemia = tested on: RPMI-8226 leukemia
HS 578T breast = tested on: HS 578T breast
K-562 leukemia = tested on: K-562 leukemia
MCF7 breast = tested on: MCF7 breast
OVCAR-8 ovarian = tested on: OVCAR-8 ovarian
CCRF-CEM leukemia = tested on: CCRF-CEM leukemia
SNB-19 CNS = tested on: SNB-19 CNS
OVCAR-5 ovarian = tested on: OVCAR-5 ovarian
HCC-2998 colon = tested on: HCC-2998 colon
DU-145 prostate = tested on: DU-145 prostate
EKVX NSCLC = tested on: EKVX NSCLC
786-0 renal = tested on: 786-0 renal
SF-268 CNS = tested on: SF-268 CNS
SK-OV-3 ovarian = tested on: SK-OV-3 ovarian
A549 NSCLC = tested on: A549 NSCLC
BT-549 breast = tested on: BT-549 breast
SK-MEL-5 melanoma = tested on: SK-MEL-5 melanoma
RXF 393 renal = tested on: RXF 393 renal
KM12 colon = tested on: KM12 colon
MDA-MB-435 = tested on: MDA-MB-435
OVCAR-3 ovarian = tested on: OVCAR-3 ovarian
NCI-H522 lung = tested on: NCI-H522 lung
NCI-H226 lung = tested on: NCI-H226 lung
SN12C renal = tested on: SN12C renal
HCT-116 colon = tested on: HCT-116 colon

SMILES: N#CC1=C(c2cccs2)Nc2c(c(-c3ccccc3)nn2-c2ccccc2)C12C(=O)Nc1ccc(Br)cc12 (stereo not given)
- GI50 (U251 CNS): 5.64 µM
- TGI (U251 CNS): 18.4 µM
- GI50 (M14 melanoma): 14.4 µM
- TGI (M14 melanoma): 27.7 µM
- GI50 (T-47D breast): 17.7 µM
- TGI (T-47D breast): 45 µM
- GI50 (SF-295 CNS): 12.5 µM
- TGI (SF-295 CNS): 25.6 µM
- GI50 (IGROV1 ovarian): 14.2 µM
- TGI (IGROV1 ovarian): 29.8 µM
- GI50 (TK-10 renal): 12.9 µM
- TGI (TK-10 renal): 36.7 µM
- GI50 (HOP-92 NSCLC): 3.4 µM
- TGI (HOP-92 NSCLC): 15.4 µM
- GI50 (NCI-H460 lung): 11.2 µM
- TGI (NCI-H460 lung): 24.6 µM
- GI50 (SW-620 colon): 11.1 µM
- TGI (SW-620 colon): 26.5 µM
- GI50 (HCT-15 colon): 5.34 µM
- TGI (HCT-15 colon): 18.2 µM
- GI50 (MOLT-4 leukemia): 7.92 µM
- TGI (MOLT-4 leukemia): 24.1 µM
- GI50 (SK-MEL-28 melanoma): 15.1 µM
- TGI (SK-MEL-28 melanoma): 28.4 µM
- GI50 (A498 renal): 16.3 µM
- TGI (A498 renal): 30.7 µM
- GI50 (MALME-3M melanoma): 14.5 µM
- TGI (MALME-3M melanoma): 27.8 µM
- GI50 (LOX IMVI melanoma): 12.4 µM
- TGI (LOX IMVI melanoma): 24.9 µM
- GI50 (HT29 colon): 15.2 µM
- TGI (HT29 colon): 29.1 µM
- GI50 (OVCAR-4 ovarian): 14.2 µM
- TGI (OVCAR-4 ovarian): 34.1 µM
- GI50 (MDA-MB-468 breast): 12.9 µM
- TGI (MDA-MB-468 breast): 27 µM
- GI50 (CAKI-1 renal): 16.2 µM
- TGI (CAKI-1 renal): 37.5 µM
- GI50 (PC-3 prostate): 6.37 µM
- TGI (PC-3 prostate): 22 µM
- GI50 (ACHN renal): 11.9 µM
- TGI (ACHN renal): 24.8 µM
- GI50 (UACC-257 melanoma): 15.6 µM
- TGI (UACC-257 melanoma): 30.9 µM
- GI50 (HOP-62 NSCLC): 15.4 µM
- TGI (HOP-62 NSCLC): 29.6 µM
- GI50 (UACC-62 melanoma): 11.4 µM
- TGI (UACC-62 melanoma): 23.6 µM
- GI50 (COLO 205 colon): 16 µM
- TGI (COLO 205 colon): 29.9 µM
- GI50 (NCI/ADR-RES ovarian): 13.3 µM
- TGI (NCI/ADR-RES ovarian): 29.1 µM
- GI50 (NCI-H23 lung): 9.98 µM
- TGI (NCI-H23 lung): 21.8 µM
- GI50 (SR leukemia): 7.93 µM
- TGI (SR leukemia): 27.1 µM
- GI50 (HL-60(TB) leukemia): 8.84 µM
- TGI (HL-60(TB) leukemia): 26.8 µM
- GI50 (SF-539 CNS): 15.2 µM
- TGI (SF-539 CNS): 28.5 µM
- GI50 (RPMI-8226 leukemia): 10.2 µM
- TGI (RPMI-8226 leukemia): 32.9 µM
- GI50 (HS 578T breast): 12.7 µM
- TGI (HS 578T breast): 40.1 µM
- GI50 (K-562 leukemia): 7.53 µM
- TGI (K-562 leukemia): 23.6 µM
- GI50 (MCF7 breast): 13.6 µM
- TGI (MCF7 breast): 28.3 µM
- GI50 (OVCAR-8 ovarian): 15.6 µM
- TGI (OVCAR-8 ovarian): 31 µM
- GI50 (CCRF-CEM leukemia): 7.51 µM
- TGI (CCRF-CEM leukemia): 26.7 µM
- GI50 (SNB-19 CNS): 5.23 µM
- TGI (SNB-19 CNS): 27.9 µM
- GI50 (OVCAR-5 ovarian): 16.5 µM
- TGI (OVCAR-5 ovarian): 33.1 µM
- GI50 (HCC-2998 colon): 13.9 µM
- TGI (HCC-2998 colon): 27 µM
- GI50 (DU-145 prostate): 20.7 µM
- TGI (DU-145 prostate): 46.6 µM
- GI50 (EKVX NSCLC): 11.1 µM
- TGI (EKVX NSCLC): 27.4 µM
- GI50 (786-0 renal): 15.7 µM
- TGI (786-0 renal): 30.5 µM
- GI50 (SF-268 CNS): 8.58 µM
- TGI (SF-268 CNS): 37.8 µM
- GI50 (SK-OV-3 ovarian): 14.2 µM
- TGI (SK-OV-3 ovarian): 28.6 µM
- GI50 (A549 NSCLC): 10.2 µM
- TGI (A549 NSCLC): 23 µM
- GI50 (BT-549 breast): 5.22 µM
- TGI (BT-549 breast): 18.1 µM
- GI50 (SK-MEL-5 melanoma): 16.6 µM
- TGI (SK-MEL-5 melanoma): 30.5 µM
- GI50 (RXF 393 renal): 10.2 µM
- TGI (RXF 393 renal): 22.2 µM
- GI50 (KM12 colon): 7.67 µM
- TGI (KM12 colon): 20.5 µM
- GI50 (MDA-MB-435): 17 µM
- TGI (MDA-MB-435): 33.7 µM
- GI50 (OVCAR-3 ovarian): 15 µM
- TGI (OVCAR-3 ovarian): 29.4 µM
- GI50 (NCI-H522 lung): 4.52 µM
- TGI (NCI-H522 lung): 17.1 µM
- GI50 (NCI-H226 lung): 15.4 µM
- TGI (NCI-H226 lung): 31.2 µM
- GI50 (SN12C renal): 13.7 µM
- TGI (SN12C renal): 27.9 µM
- GI50 (HCT-116 colon): 12.1 µM
- TGI (HCT-116 colon): 24.7 µM
